Assay results as given in BindingDB's records for doi:10.1016/j.bmcl.2005.03.089 (Yunnan University, 2022).

Molecular target: Replicase polyprotein 1ab (Severe acute respiratory syndrome coronavirus 2, UniProt P0DTD1)
Assay: Inhibition of SARS-CoV-2 MPro incubated for 5 mins by FRET assay

Row | Structure (SMILES) | IC50 [µM]
1 | CC(C)=CCc1cc(/C=C2\OC(=O)C(c3cc(CCC(C)(C)O)c(O)cc3O)=C2O)ccc1O | 7.7
2 | CC(C)(O)C1Cc2cc(/C=C3\OC(=O)C(c4cc5c(cc4O)OC(C)(C)C(O)C5)=C3O)ccc2O1 (stereo not drawn) | 9.4
3 | CC(C)=CCc1cc(/C=C2\OC(=O)C(c3cc4c(cc3O)OC(C)(C)CC4)=C2O)ccc1O | 10.3
